The values below come from patent US8183260B2, “5H-thioeno(3,4-c)pyrrole-4,6-dione derivatives and their use as tumor necrosis factor inhibitors” (Tianjin Hemay Bio-Tech Co., Ltd., priority 2005, dated 2012).

As usually defined, the inhibition is the drop in the measured response relative to a control, in per cent. As a reminder, the IC50 is the midpoint of a concentration-inhibition curve.

The assay deals with TNFα released by PBMCs. Nature of the assay: Inhibition of TNFα release from monocytes (PBMC) stimulated by LPS, ELISA. Format: cell-based. The note with it: Homo sapiens, LPS 0.1 μg/mL, 20 hr incubation; for inhibition at 100 µM: test concentration 100 μM; for inhibition at 100 µM / inhibition at 3 µM: read-out: Degree of inhibition (%); for IC50: concentration giving 50% TNFα inhibition; for inhibition at 3 µM: test concentration 3.0 μM. On the procedure: Cytokine TNFα released by PBMCs in the peripheral blood after […] (LPS) stimulation in vitro was studied. The followings are experimental protocols for studying cytokine TNFα released by PBMCs, which are inhibited by compounds of the invention.
PBMCs were obtained from blood of at least three volunteers after heparin treatment, using gradient extraction. PBMCs were collected and washed three times with a 1640 medium (10% calf serum, 2 mM L-glutamine, […], 50 μg/mL streptomycin, 50 U/mL penicillin), then placed into wells of a 24-well cell culture plate. The concentration was adjusted to 1×10^6 cells/mL with 1640 culture medium. […] The resultant solution was added to the cell culture medium and the culture plate was placed in a CO2 incubator (5% CO2, 90% humidity) for 1 hour. Then, LPS (Sigma) was added and its concentration was adjusted to 0.1 μg/mL (except for the control).
After a 20 hr incubation period, the content of TNFα in supernatant of the above PBMC culture medium was assayed by ELISA kit (America Genzyme Co), using standard method. The measured value of the control well (not treated with active components), and the measured value of the test wells containing the test compounds was used to calculate the TNFα inhibition rate. The concentration of compounds giving a 50% TNFα inhibition (IC50 value) was calculated using nonlinear regression analysis. Each concentration was determined twice and an average value was calculated.
(In general: In an ELISA, binding on a coated surface is turned into a signal by an enzyme label.)

With `O=C1CCC(N2C(=O)c3cscc3C2=O)C(=O)N1` (stereo not shown) [Example 10, 5-(2,6-dioxopiperidin-3-yl)-5H-thieno(3,4-c)pyrrole-4,6-dione], the inhibition at 100 µM is 32%.

`CN1C(=O)CCC(N2C(=O)c3cscc3C2=O)C1=O` (stereo not shown) [Example 13, 5-(1-methyl-2,6-dioxopiperidin-3-yl)-5H-thieno(3,4-c)pyrrole-4,6-dione]: the inhibition at 100 µM was 20%.

As to `COC(=O)CN1C(=O)CCC(N2C(=O)c3cscc3C2=O)C1=O` (stereo not shown) [Example 15, 5-(1-methoxycarbonylmethyl-2,6-dioxopiperidin-3-yl)-5H-thieno(3,4-c)pyrrole-4,6-dione], the inhibition at 100 µM worked out at 18%.

`COCCN1C(=O)CCC(N2C(=O)c3cscc3C2=O)C1=O` (stereo not shown) [Example 16, 5-(1-(2-methoxyethyl)-2,6-dioxopiperidin-3-yl)-5H-thieno(3,4-c)pyrrole-4,6-dione]: the inhibition at 100 µM amounted to 28%.

In the case of `O=C1CCC(N2C(=O)c3csc([N+](=O)[O-])c3C2=O)C(=O)N1` (stereo not shown) [Example 18, 1-nitro-5-(2,6-dioxopiperidin-3-yl)-5H-thieno(3,4-c)pyrrole-4,6-dione], the inhibition at 100 µM was 28%.

Consider `Nc1scc2c1C(=O)N(C1CCC(=O)NC1=O)C2=O` (stereo not shown) [Example 19, 1-amino-5-(2,6-dioxopiperidin-3-yl)-5H-thieno(3,4-c)pyrrole-4,6-dione], for which the IC50 came out at 0.006 µM and the inhibition at 3 µM was found to be 95%.

Regarding `CNc1scc2c1C(=O)N(C1CCC(=O)NC1=O)C2=O` (stereo not shown) [Example 22, 1-methylamino-5-(2,6-dioxopiperidin-3-yl)-5H-thieno(3,4-c)pyrrole-4,6-dione], the IC50 is 0.5 µM and the inhibition at 3 µM turned out to be 62%.

For the molecule `CC(=O)Nc1scc2c1C(=O)N(C1CCC(=O)NC1=O)C2=O` (stereo not shown) [Example 24, 1-acetamido-5-(2,6-dioxopiperidin-3-yl)-5H-thieno(3,4-c)pyrrole-4,6-dione], the inhibition at 3 µM is 48%.

Take `CC1(N2C(=O)c3csc(N)c3C2=O)CCC(=O)NC1=O` (stereo not shown) [Example 27, 1-amino-5-(3-methyl-2,6-dioxopiperidin-3-yl)-5H-thieno(3,4-c)pyrrole-4,6-dione]: the IC50 was 0.05 µM and the inhibition at 3 µM amounted to 84%.

`CN1C(=O)CCC(N2C(=O)c3csc(N)c3C2=O)C1=O` (stereo not shown) [Example 31, 1-amino-5-(1-methyl-2,6-dioxopiperidin-3-yl)-5H-thieno(3,4-c)pyrrole-4,6-dione]: the IC50 amounted to 0.35 µM and the inhibition at 3 µM came to 71%.

Take `O=C1CCC(N2C(=O)c3ccccc3C2=O)C(=O)N1` (stereo not shown) [Thalidomide, reference compound]: the IC50 stood at 183 µM and the inhibition at 100 µM was determined as 22%.
